Here are results for one molecule from EP0054756A2, “Antibacterial benzylpyrimidines” (THE WELLCOME FOUNDATION LIMITED, priority 1980, dated 1982).

Data set [1] deals with Staphylococcus aureus. Description: In vitro MIC against bovine mastitis strains. In kind it is cell-based. The conditions noted are these: "OXFORD", Internal Ref. No. 6571, read-out: Approximate MIC.
The subject of data set [2] is N. gonorrhea. The experiment in a line: In vitro antibacterial activity versus TMP, Difco test. The conditions noted are these: activity relative to trimethoprim. It is filed as cell-based.
For a further data set, the system named is Strep.Faecalis CN 478. Description: In vitro antibacterial activity (MIC). In kind it is cell-based. The conditions noted are these: Enterococcus faecalis, CN478.
Data set [3] deals with Dihydrofolate reductase (Neisseria gonorrhoeae, UniProt P04174). The experiment in a line: biochemical. The conditions noted are these: N. gonorrhea enzyme; read-out: Dihydrofolate reductase inhibition, I50 x 10^8.
The subject of data set [4] is N. gonorrhea. Description: In vitro antibacterial activity versus TMP, Wellcome test. It is filed as cell-based. The conditions noted are these: activity relative to trimethoprim.
The nature of data set [5]: LD50 intraperitoneal in male rats. The note with it: rat, in vivo, ip. The method, then: The LD50's ( expressed in rng/kg intraperitoneal) of two compounds of the present invention were determined in male rats.
The subject of the next data set is St. pyogenes. The experiment in a line: In vitro antibacterial activity (MIC). In kind it is cell-based. The conditions noted are these: Streptococcus pyogenes.
The next data set deals with Staph.aureus CN 491. Description: In vitro antibacterial activity (MIC). In kind it is cell-based. The note with it: Staphylococcus aureus, CN491.
Data set [6] has as its target Dihydrofolate reductase (Escherichia coli, UniProt P0ABQ4). The experiment in a line: Dihydrofolate reductase inhibition. In kind it is biochemical, E. coli.
The target in data set [7] is Dihydrofolate reductase (Plasmodium berghei, UniProt Q27713). Description: biochemical. The conditions noted are these: P. berghei enzyme; read-out: Dihydrofolate reductase inhibition, I50 x 10^8.
For data set [8], the system named is Streptococcus dysgalactiae. Description: In vitro MIC against bovine mastitis strains. In kind it is cell-based. The note with it: read-out: Approximate MIC. From the text:
(§1) All organisms were isolated from the bovine udder.

A further data set deals with Streptococcus uberis. Description: In vitro MIC against bovine mastitis strains. It is filed as cell-based. The note with it: Internal Ref. No. 359, isolated from the bovine udder, read-out: Approximate MIC.
Description: as §1

In data set [9] the test system is Staphylococcus aureus. The experiment in a line: In vitro MIC against bovine mastitis strains. In kind it is cell-based. The conditions noted are these: read-out: Approximate MIC.
Description: as §1

A further data set deals with Streptococcus agalactiae. Description: In vitro MIC against bovine mastitis strains. In kind it is cell-based. The note with it: read-out: Approximate MIC.
Description: as §1

A further data set relates to E. coli CN 314. The experiment in a line: In vitro antibacterial activity (MIC). In kind it is cell-based. The conditions noted are these: Escherichia coli, CN314.
Data set [10] deals with T1, Dihydrofolate reductase (Rattus norvegicus, UniProt Q920D2).
T1 construct: Rat liver; from tissue; host or cells: rat liver
T1 sequence (Q920D2 1-187): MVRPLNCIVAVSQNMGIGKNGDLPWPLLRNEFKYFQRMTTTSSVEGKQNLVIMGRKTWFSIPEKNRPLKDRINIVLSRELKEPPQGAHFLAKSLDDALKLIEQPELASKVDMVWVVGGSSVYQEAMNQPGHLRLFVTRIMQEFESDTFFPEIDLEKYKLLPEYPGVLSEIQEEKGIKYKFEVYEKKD
Description: Dihydrofolate reductase inhibition. In kind it is biochemical, Rat liver.

Values after ≈ are worked out from the molar mass of the structure shown. Like-named read-outs stand apart in the source and are kept apart here. Where only a bound is given, the exact number is not on record here.

What is called MIC is the lowest concentration that inhibits growth of the organism. As a reminder, the LD50 is the dose expected to kill half of the subjects tested. Low values mean a more toxic substance, high ones a less toxic substance. Turning to `COc1cccc(CCCOc2cc(Cc3cnc(N)nc3N)cc(OC)c2OC)c1` [compound 2, 2,4-Diamino-5-(3,4-dimethoxy-5-(3-(m-methoxyphenyl)propoxy)benzyl)pyrimidine], the MIC with Staphylococcus aureus [1] worked out at 0.025 µM (≈ 0.0106 µg/mL); in the data set on Strep.Faecalis CN 478, 0.3 µg/mL (≈ 0.707 µM); in the data set with St. pyogenes (read-out: MIC St. pyogenes CN 10) it was 1 µg/mL (≈ 2.36 µM); in the data set with St. pyogenes (read-out: MIC St. pyogenes S3640) it was 1 µg/mL (≈ 2.36 µM); against Staph.aureus CN 491, 0.3 µg/mL (≈ 0.707 µM); in [8] (Internal Ref. No. 366, isolated from the bovine udder), 0.75 µM (≈ 0.318 µg/mL). The minimum inhibitory concentration (MIC) came out at 0.25 µM (≈ 0.106 µg/mL) in data set [8] (Internal Ref. No. 367, isolated from the bovine udder); 2.5 µM (≈ 1.06 µg/mL) in the data set on Streptococcus uberis; 0.025 µM (≈ 0.0106 µg/mL) with Staphylococcus aureus [9] (Internal Ref. No. 316, isolated from the bovine udder); 0.025 µM (≈ 0.0106 µg/mL) with Staphylococcus aureus [9] (Internal Ref. No. 317, isolated from the bovine udder); 0.025 µM (≈ 0.0106 µg/mL) in the data set with Staphylococcus aureus [9] (Internal Ref. No. 348, isolated from the bovine udder); 0.025 µM (≈ 0.0106 µg/mL) in the data set with Staphylococcus aureus [9] (Internal Ref. No. 349, isolated from the bovine udder). Besides, the MIC in the data set with Staphylococcus aureus [9] (Internal Ref. No. 352, isolated from the bovine udder) came to 0.075 µM (≈ 0.0318 µg/mL); in the data set on Staphylococcus aureus [9] (Internal Ref. No. 353, isolated from the bovine udder), 0.025 µM (≈ 0.0106 µg/mL); in the data set on Streptococcus agalactiae (Internal Ref. No. 321, isolated from the bovine udder) it was 0.25 µM (≈ 0.106 µg/mL); in the data set on Streptococcus agalactiae (Internal Ref. No. 371, isolated from the bovine udder) it was 0.75 µM (≈ 0.318 µg/mL); in the data set with E. coli CN 314 it was 10 µg/mL (≈ 23.6 µM). Moreover, the “Act., vs TMP N. gonorrhea Difco test” value in the data set with N. gonorrhea [2] was found to be 9.63. The IC50 on Dihydrofolate reductase [3] worked out at 18 nM; against Dihydrofolate reductase [6] it was 57 nM; on Dihydrofolate reductase [7] it was 57 nM; on Dihydrofolate reductase [10], 83000 nM. Besides, the “Act., vs TMP N. gonorrhea Wellcome test” value in the data set with N. gonorrhea [4] was 3.20. This molecule also registered an LD50 in data set [5] of more than 100 mg/kg.
